Like-named read-outs stand apart in the source and are kept apart here.
Key:
[1] = Hepatic metabolic stability (rat liver microsome method); format: in vitro ADME; conditions: rat liver microsomes 0.5 mg/mL, test substance 1 μM, NADPH 1 mM, 37° C., 30 minutes
Method: Metabolic stability in rat liver microsomes was evaluated by the following method. First, in 100 mM of potassium phosphate buffer solution (pH 7.4), liver microsomes (concentration at reaction: 0.5 mg/mL) and the test substance (concentration at reaction: 1 μM) were preincubated at 37° C. Five minutes later, 100 mM of potassium phosphate buffer (pH 7.4) solution of NADPH (concentration at reaction: 1 mM) was mixed thereto to start the reaction. After a predetermined time passed, acetonitrile was mixed to the reaction mixture to stop the reaction. Here, the reaction time was 0 and 30 minutes, and drug concentration measurement was performed for each time period using LC-MS. The % remaining value of the test compound was calculated from the value for 0 minutes and the value for 30 minutes, using the calculation formula below: % Remaining=(Value for 30 Minutes/Value for 0 Minutes)×100
The results of measuring the rat liver microsome metabolic Stability (% remaining for 30-minute reaction) for the test compound by the above method were evaluated in accordance with the following evaluated basis; A: a % remaining rate of 75% or more, B: 60% or more and less than 75%, C: 45% or more and less than 60%, and D: less than 45%.

[2] = test system: PDE4; assay: Evaluation of PDE4 inhibitory activity, scintillation proximity assay; format: biochemical; conditions: scintillation proximity assay
Procedure, shortened: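 SPA with [2,8-3H]-cAMP and diluted PDE4 enzyme preparation in 50 mM Tris-HCl pH 7.4, 8.3 mM MgCl2, 1.7 mM EGTA, 3 mg/mL BSA, 120 min at room temperature. Product captured on ZnSO4-containing YSi-SPA beads, scintillation counted; IC50 from inhibition curves vs DMSO control and no-enzyme blank.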

[3] = read-out: PDE4 Inhibitory Activity (Evaluation 1; concentration for the inhibition rate of 50%)
[4] = class symbols of Evaluation 1, read-out: PDE4 Inhibitory Activity (concentration for the inhibition rate of 50%, IC50), Evaluation 1

| SMILES | Residual ratio (% remaining for 30-minute reaction) [1] | IC50 [2, 3] [nM] | IC50 [2, 4] [nM] |
| --- | --- | --- | --- |
| CC(C)(O)C(F)(F)Oc1ccc(-c2ncns2)c2oc(N3CC4CCC(C3)N4)nc12 [Example 327, 1-((2-(3,8-Diazabicyclo[3.2.1]octan-3-yl)-7-(1,2,4-thiadiazol-5-yl)benzo[d]oxazol-4-yl)oxy)-1,1-difluoro-2-methylpropan-2-ol] | B (B: 60% or more and less than 75%) | < 100 |  |
| CC(C)(O)C(F)(F)Oc1ccc(-n2cccn2)c2oc(N3CC4CC(C3)N4)nc12 [Example 304, 1-((2-(3,6-Diazabicyclo[3.1.1]heptan-3-yl)-7-(1H-pyrazol-1-yl)benzo[d]oxazol-4-yl)oxy)-1,1-difluoro-2-methylpropan-2-ol] | A (A: a % remaining rate of 75% or more) | < 100 |  |
| OCC(F)(F)Oc1ccc(-c2ccccn2)c2oc(N3CC4CC(C3)N4)nc12 [Example 315, 2-((2-(3,6-Diazabicyclo[3.1.1]heptan-3-yl)-7-(pyridin-2-yl)benzo[d]oxazol-4-yl)oxy)-2,2-difluoroethan-1-ol] | A (A: a % remaining rate of 75% or more) | < 100 |  |
| OCc1cccnc1Oc1ccc(-c2nccs2)c2oc(N3CC4CC(C3)N4)nc12 [Example 376, (2-((2-(3,6-Diazabicyclo[3.1.1]heptan-3-yl)-7-(thiazol-2-yl)benzo[d]oxazol-4-yl)oxy)pyridin-3-yl)methanol] | A (A: a % remaining rate of 75% or more) | < 100 |  |
| OCC(F)(F)Oc1ccc(-c2nccs2)c2oc(N3CC4CC(C3)N4O)nc12 [Example 374, 3-(4-(1,1-Difluoro-2-hydroxyethoxy)-7-(thiazol-2-yl)benzo[d]oxazol-2-yl)-3,6-diazabicyclo[3.1.1]heptan-6-ol] | B (B: 60% or more and less than 75%) | < 100 |  |
| FC(F)(F)Oc1c(Cl)cc(-n2cccn2)c2oc(N3CC4CCC(C3)N4)nc12 [Example 5, 2-(3,8-Diazabicyclo[3.2.1]octan-3-yl)-5-chloro-7-(1H-pyrazol-1-yl)-4-(trifluoromethoxy)benzo[d]oxazole] | B (B: 60% or more and less than 75%) |  | < 100 |
| CCC(O)C(F)(F)Oc1ccc(-c2nccs2)c2oc(N3CC4CC(C3)N4)nc12 (centres unmarked) [Example 395, 1-((2-(3,6-Diazabicyclo[3.1.1]heptan-3-yl)-7-(thiazol-2-yl)benzo[d]oxazol-4-yl)oxy)-1,1-difluorobutan-2-ol] | B (B: 60% or more and less than 75%) | < 100 |  |
| CC(O)(CO)C(F)(F)Oc1ccc(-c2nccs2)c2oc(N3CC4CC(C3)N4)nc12 (single isomer, unassigned) [Example 364, 3-((2-(3,6-Diazabicyclo[3.1.1]heptan-3-yl)-7-(thiazol-2-yl)benzo[d]oxazol-4-yl)oxy)-3,3-difluoro-2-methylpropane-1,2-diol] | A (A: a % remaining rate of 75% or more) | < 100 |  |
| O=C(NCCO)C(F)(F)Oc1ccc(-c2nccs2)c2oc(N3CC4CC(C3)N4)nc12 [Example 411, 2-((2-(3,6-Diazabicyclo[3.1.1]heptan-3-yl)-7-(thiazol-2-yl)benzo[d]oxazol-4-yl)oxy)-2,2-difluoro-N-(2-hydroxyethyl)acetamide] | A (A: a % remaining rate of 75% or more) | < 100 |  |
| FC(F)(F)c1ccc(Oc2ccc(-c3nccs3)c3oc(N4CC5CC(C4)N5)nc23)nc1 [Example 336, 2-(3,6-Diazabicyclo[3.1.1]heptan-3-yl)-7-(thiazol-2-yl)-4-((5-(trifluoromethyl)pyridin-2-yl)oxy)benzo[d]oxazole] | B (B: 60% or more and less than 75%) | < 100 |  |
| CS(=O)(=O)c1ccc(Oc2ccc(-c3nccs3)c3oc(N4CC5CC(C4)N5)nc23)nc1 [Example 352, 2-(3,6-Diazabicyclo[3.1.1]heptan-3-yl)-4-((5-(methylsulfonyl)pyridin-2-yl)oxy)-7-(thiazol-2-yl)benzo[d]oxazole] | A (A: a % remaining rate of 75% or more) | < 100 |  |
| Cn1ccc(-c2ccc(OC(F)(F)C(C)(C)O)c3nc(N4CC5CCC(C4)N5)oc23)n1 [Example 328, 1-((2-(3,8-Diazabicyclo[3.2.1]octan-3-yl)-7-(1-methyl-1H-pyrazol-3-yl)benzo[d]oxazol-4-yl)oxy)-1,1-difluoro-2-methylpropan-2-ol] | A (A: a % remaining rate of 75% or more) | < 100 |  |
| OC1CC(Oc2ccc(-c3nccs3)c3oc(N4CC5CC(C4)N5)nc23)C1 (centres unmarked) [Example 285, 3-((2-(3,6-Diazabicyclo[3.1.1]heptan-3-yl)-7-(thiazol-2-yl)benzo[d]oxazol-4-yl)oxy)cyclobutan-1-ol] | A (A: a % remaining rate of 75% or more) | < 100 |  |
| c1csc(-c2ccc(O[C@@H]3CCOC3)c3nc(N4CC5CC(C4)N5)oc23)n1 [Example 324, 2-(3,6-Diazabicyclo[3.1.1]heptan-3-yl)-4-(((R)-tetrahydrofuran-3-yl)oxy)-7-(thiazol-2-yl)benzo[d]oxazole] | A (A: a % remaining rate of 75% or more) | < 100 |  |
| CC(O)(CO)C(F)(F)Oc1ccc(-c2nccs2)c2oc(N3CC4CC(C3)N4)nc12 (single isomer, unassigned) [Example 365, 3-((2-(3,6-Diazabicyclo[3.1.1]heptan-3-yl)-7-(thiazol-2-yl)benzo[d]oxazol-4-yl)oxy)-3,3-difluoro-2-methylpropane-1,2-diol] | A (A: a % remaining rate of 75% or more) | < 100 |  |
| O=C(N1CCOCC1)C(F)(F)Oc1ccc(-c2nccs2)c2oc(N3CC4CC(C3)N4)nc12 [Example 409, 2-((2-(3,6-Diazabicyclo[3.1.1]heptan-3-yl)-7-(thiazol-2-yl)benzo[d]oxazol-4-yl)oxy)-2,2-difluoro-1-morpholinoethan-1-one] | B (B: 60% or more and less than 75%) | < 100 |  |
| FC(F)(F)Oc1c(Cl)cc(-c2cscn2)c2oc(N3CC4CCC(C3)N4)nc12 [Example 8, 2-(3,8-Diazabicyclo[3.2.1]octan-3-yl)-5-chloro-7-(thiazol-4-yl)-4-(trifluoromethoxy)benzo[d]oxazole] | A (A: a % remaining rate of 75% or more) |  | < 100 |
| Cc1csc(-c2ccc(OC(F)(F)C(C)(C)O)c3nc(N4CC5CCC(C4)N5)oc23)n1 [Example 318, 1-((2-(3,8-Diazabicyclo[3.2.1]octan-3-yl)-7-(4-methylthiazol-2-yl)benzo[d]oxazol-4-yl)oxy)-1,1-difluoro-2-methylpropan-2-ol] | B (B: 60% or more and less than 75%) | < 100 |  |
| CC(C)(O)C(F)(F)Oc1c(Br)cc(-c2nccs2)c2oc(N3CC4CC(C3)N4)nc12 [Example 399, 1-((2-(3,6-Diazabicyclo[3.1.1]heptan-3-yl)-5-bromo-7-(thiazol-2-yl)benzo[d]oxazol-4-yl)oxy)-1,1-difluoro-2-methylpropan-2-ol] | B (B: 60% or more and less than 75%) | < 100 |  |

Reference: patent publication US12239643B2, “Therapeutic agent for inflammatory diseases, autoimmune diseases, fibrotic diseases, and cancer diseases” (MEIJI SEIKA PHARMA CO., LTD., priority 2018, dated 2025)
